Measured values published in patent US20080234368A9, “Therapeutic compositions and methods of use” (Trustees of Dartmouth College, priority 1998, published 2008).

What was measured:
[1] = system: AsPc-1 pancreatic carcinoma cells; test: Inhibition of cell proliferation (3H-thymidine incorporation); format: cell-based, human; conditions: AsPc-1 (Smad4/DPC4 mutation); 3 or 4 days, 3H-thymidine 2 h
Protocol: (§1) All cells were obtained from ATCC, except as noted. They were grown under standard conditions in either DMEM, DMEM/F 12, or RPMI 1640 media plus 5-10% FBS. CDDO, over the dose range 10^−6 to 10^−10 M, was added to cultures at the time of seeding. Three or 4 days later, cells were treated with ^3H-thymidine for 2 h (12 h in the case of leukemia cells), and then incorporation was measured. “ER” means estrogen receptor.
(§2) ^aThese cells all have […] mutations (Schutte et al. 1996).

[2] = system: CAPAN-1 pancreatic carcinoma cells; test: as above; format: cell-based, human; conditions: CAPAN-1 (Smad4/DPC4 mutation); 3 or 4 days, 3H-thymidine 2 h
Protocol: as §1, §2

[3] = system: MDA-MB-468 ER negative breast carcinoma cells; test: as above; format: cell-based, human; conditions: MDA-MB-468 (Smad4/DPC4 mutation); 3 or 4 days, 3H-thymidine 2 h
Protocol: as §1, §2

[4] = system: SW626 ovarian carcinoma cells; test: as above; format: cell-based, human; conditions: SW626 (Smad4/DPC4 mutation); 3 or 4 days, 3H-thymidine 2 h
Protocol: as §1, §2

[5] = system: MCF-7 breast carcinoma cells; test: Suppression of thymidine incorporation, dose-response (FIG. 13); format: cell-based, human; conditions: MCF-7 with 17-β-estradiol, 72 h; oleanolic acid statement at concentrations of 1 μM or less
Protocol: Inhibitors of cell proliferation are known to be useful chemopreventive and chemotherapeutic agents. CDDO was tested against a wide variety of cells derived from highly aggressive leukemias and carcinomas, as well as from non-neoplastic tissues. NRP-152 cells were grown as described in Danielpour et al., 1994. MCF-7 cells were grown in phenol red-free RPMI 1640/10% charcoal-stripped FBS with added 17-β-estradiol (10 μM). Triterpenoids were added at the time of plating, and 72 h later ^3H-thymidine (1 μCi/well) was added for the final 2 h of incubation. Incorporation of thymidine was measured after cells were precipitated with TCA (10%), washed, and solubilized. The symbols used in FIG. 13 are CDDO, ▪; TP-82, ◯; and oleanolic acid; ●.

[6] = system: LCDB acute myelogenous leukemia cell line; test: Monocytic differentiation, α-naphthyl acetate esterase staining; format: cell-based, human
Protocol: CDDO induces monocytic differentiation in the poorly differentiated LCDB acute myelogenous leukemia cell line, derived from a chemotherapy-resistant patient at the NCI Pediatric Oncology Branch. FIG. 11 illustrates LCDB cells seeded in RPMI 1640/2% FBS, either alone (11A), with 2.5 ng/ml TGF-β1 (11B), with 10^−8 M CDDO (11C), or with both TGF-β1 and CDDO (11D). After 48 h, cytospin slide preparations were made and stained for α-naphthyl acetate esterase activity (kit from Sigma). PC12 cells were cultured for 5 days in gridded dishes in DMEM/10% FBS and 5% horse serum (Smith et al., 1997), either alone (11E), with 100 ng/ml 7S NGF (11F), with 10^−6 M CDDO (11G), or with both NGF and CDDO (11H). […] Methods for quantitative image analysis of size of cells and neurites have been described (De 1a Torre et al., 1997). Control cells in FIG. 11E are approximately 10 μm in diameter. 3T3-L1 cells were grown to confluency in DMEM/5% calf serum, and then treated once with CDDO in DMEM/10% FBS (FIG. 12A) or with CDDO and/or LG100268 in DMEM/10% FBS (FIG. 12B). Every two days thereafter, medium was changed to DMEM/10% FBS, without added CDD0 or LG100268. Cells were harvested on day 8 (FIG. 12A) or day 6 (FIG. 12B), and GPDH was measured in lysates, using a standard assay for consumption of NADH at 340 nm (Wise and Green, 1979).

[7] = system: NB4 promyelocytic leukemia line; test: Differentiation of leukemia cells (data not shown); format: cell-based, human; conditions: by itself or in combination with TGF-β1
iNOS = test: Western blot for iNOS protein in stimulated primary macrophages; format: cell-based, mouse; conditions: concentrations of 1 μM or less; IFN-γ 10 ng/ml, LPS 2 ng/ml, 12 h
Protocol: (§3) FIG. 14(A) illustrates Western blots; primary mouse macrophages; IFN-γ, 10 ng/ml; LPS, 2 ng/ml were added to cultures together with triterpenoids or dexamethasone (concentrations shown as […]); cells were harvested at 12 h. FIG. 14(B) illustrates Northern blots, RAW 264.7 macrophage-like cell line. IFN-γ, 10 ng/ml; LPS, 1 ng/ml; TNF-α, 10 ng/ml, were added to cultures together with CDDO or dexamethasone. RNA prepared after 12 h; GAPDH used as a loading control. FIG. 14(C) illustrates suppression of production of NO and PGEF in primary macrophages. For NO studies, cells were treated with IFN-γ, 10 ng/ml, together with CDDO (M), dexamethasone (O), TP-82 (□), or oleanolic acid (A). After 48 h, supernatants were analyzed for NO by the Griess reaction. For PGEF studies, cells were treated with IFN-γ, 5 ng/ml, and LPS, 5 ng/ml, together with the same set of inhibitors. After 48 h, PGE was measured in supernatants by immunoassay. Control values (no inhibition) for NO and PGE2 were 4.7 nmol/[…] and 2.2 ng/ml/2×10^5 cells, respectively. FIGS. (14D) and (14E) illustrate (human colon myofibroblasts) ^18Co cells grown in MEM/10% FBS; other methods are the same as reported above for macrophages. FIG. 14(D) illustrates Northern blots showing dose-response for suppression of COX-2 mRNA after induction with IL-1β (30 pg/ml). CDDO was added together with IL-1. […]

iNOS mRNA = test: Northern blot for iNOS mRNA in RAW 264.7 cells; format: cell-based, mouse; conditions: CDDO 10^−6 M, RAW 264.7, 12 h
Protocol: as §3

`CC1(C)CC[C@]2(C(=O)O)CC[C@]3(C)[C@H](C(=O)C=C4[C@@]5(C)C=C(C#N)C(=O)C(C)(C)[C@@H]5CC[C@]43C)[C@@H]2C1` [Compound 6, 2-cyano-3,12-dioxoolean-1,9-dien-28-oic acid] was tested. Which IC50 [1] did it give?
The IC50 was 100 nM.

What about the IC50 [2] of the same compound?
Its IC50 is 300 nM.

And the IC50 [3]?
The IC50 was 200 nM.

And the IC50 [4]?
Its IC50 is 300 nM.

What about the suppressing thymidine incorporation [5] of the same compound?
Its suppressing thymidine incorporation is “highly active in the nanomolar range”.

And the “α-naphthyl esterase activity, combination effect” value ([6]; 10^−8 M CDDO with 2.5 ng/ml TGF-β1)?
Its value is “additive effect”.

What about the “induction of α-naphthyl esterase activity (monocytic differentiation)” value ([6]; 10^−8 M CDDO, within 48 h) of the same compound?
Its value is “induced the activity of this enzyme”.

And the differentiative effects [7]?
The differentiative effects was “differentiative effects”.

What about the “expression of iNOS protein” value (iNOS) of the same compound?
Its value is “blocked expression”.

And the “lowering of iNOS mRNA expression” value (iNOS mRNA)?
The value was “greater than 75%”.
